Results published in a melting point compilation (Tetko et al.; mined from patent text by program, amines drawn as free bases though some values may be those of a salt).

Row | SMILES | melting point
1 | CC(C)c1nc(N(C)S(C)(=O)=O)nc(-c2ccc(F)cc2)c1/C=C/C#N | 134 °C
2 | O=C(NC(Cc1ccccc1)C(=O)O)c1cc(-c2ccc(OCc3ccccc3)cc2)[nH]n1 (stereo not given) | 196 to 200 °C
3 | C=C1CC2C(=O)C(c3c(CC)cc(C)cc3CC)=C(OCc3ccccc3)C2C1 (stereo not given) | 87 to 88 °C
4 | COCCNC(=O)Nc1nc2ccc(Sc3nnc4ccccn34)cc2s1 | 252 to 257 °C
5 | CCOC(=O)c1cn(C2CC2)c2c(F)c(C#Cc3cc(Cc4cnc(N)nc4N)cc(OC)c3OC)c(F)cc2c1=O | > 230 °C
6 | O=S1(=O)N=C(NC2CCCC2)Nc2sc(Cl)cc21 | 280 to 282 °C
7 | N=C(Nc1ccc(Cl)cc1)Nc1ncccc1OCc1c(F)cccc1F | 146 to 148 °C
8 | COC(=O)NNC(=O)Cl | 55 to 58 °C
9 | O=S(=O)(CCN1CCCCC1)Nc1cc(C(c2cc(F)ccc2F)S(=O)(=O)c2ccc(Cl)cc2)c(Cl)cn1 (stereo not given) | 200 to 203 °C
10 | CCC1C(=O)c2c(cc(OC)c(Cl)c2Cl)C1c1ccccc1 (stereo not given) | 114 to 116 °C
11 | CC(C)Cc1nn(C)c(=O)c2cc(Cc3c(F)cccc3Cl)sc12 | 85 to 86 °C
12 | COc1c2c(cc3ccccc13)CCC(C(=O)O)C2 (stereo not given) | 192 °C
13 | CC(C)CC(C(=O)O)c1cc(Cl)c(-c2ccc(Cl)c(Cl)c2)c(OCC2CC2)c1 (stereo not given) | 118 to 119 °C
14 | CNS(=O)(=O)Oc1ccc2c(c1)C(C)(C)C(O)O2 (stereo not given) | 111 to 112 °C
15 | COc1ccc(Oc2ccccc2-c2cn(C(C)(C)C)c(N)c2C#N)cc1 | 171 to 172 °C
16 | Cc1cc2c(c(C)c1S(=O)(=O)C[N+](=O)[O-])CCCS2(=O)=O | 168 to 170 °C
17 | CCCSc1cscc1S(=O)(=O)NC(C)(C)C | 61 to 63 °C
18 | CO/C(=C\c1ccc2oc(Cc3nc(-c4ccccc4)oc3C)cc2c1)C(N)=O | 160 to 164 °C
19 | CC1CCC2(C)C(=CCC3C4CC(Cl)C(=O)C4(C)CCC32)C1 (stereo not given) | 159 to 165 °C
20 | CCN(CC)CCNC(=O)c1nc(Cl)c(N)nc1OC | 158 °C
21 | CCOC(=O)C1Cc2cc3c(CC)noc3c(Cl)c2O1 (stereo not given) | 95 to 96 °C
22 | Nc1ncc(-c2ccc(F)c(Cl)c2)nc1C(=O)Nc1cccnc1 | 236 to 238 °C
23 | N#Cc1ccc(C#CCCC(=O)O)cc1 | 149 to 152 °C
24 | O=C(CON=C(C(=O)O)c1csc(NC(=O)C(F)(F)F)n1)OC(c1ccccc1)c1ccccc1 | 178 to 180 °C
25 | CNc1c(C#N)c(C(F)(F)F)nn1-c1c(Cl)cc(C(F)(F)F)cc1Cl | 200 to 202 °C

Row | SMILES | melting point
26 | O=C(O)COc1cccc2c1CCc1sc(SCC(c3ccccc3)c3ccccc3)nc1-2 | 223 to 225 °C
27 | O=C(O)c1cc(O)c(I)c(O)c1 | 245 to 248 °C
28 | CCOC(=O)c1cncnc1Nc1ccccc1NC | 153 to 155 °C
29 | C=CC(=O)Oc1ccc(Cl)c2c(N(C)C)ncnc12 | 95 to 100 °C
30 | CCc1cc2c(ccc(=O)n2Cc2ccc(NC(=O)c3ccccc3C(=O)O)cc2)c(CC)n1 | 237 to 240 °C
31 | COc1cccc(-c2nc(-c3ccccn3)no2)c1 | 96 to 99 °C
32 | COc1c(N2CCC(O)C(CO)C2)c(F)cc2c(=O)c(C(=O)O)cn(C3CC3)c12 (stereo not given) | 115 to 125 °C
33 | Fc1cccc(F)c1-c1c(Cl)nc(Cl)n1-c1ccc(Cl)cc1 | 123 to 125 °C
34 | Cc1oc(C=Cc2ccc(Cl)cc2)nc1CC#N | 124 to 125 °C
35 | CN1CN(C)c2nc3n(Cc4ccccc4)c(=O)c(Cc4ccccc4)c(O)n3c2C1=O | 176 to 179 °C
36 | CC1(C)CCC(C)(C)c2cc(Oc3ccc4c(CO)cccc4c3)ccc21 | 131 to 133 °C
37 | O=C1OCCC12Oc1ccc([N+](=O)[O-])cc1C2=O (stereo not given) | 199 to 200 °C
38 | NC(=O)c1cnn2c1NCC=C2c1cccc(F)c1 | 122 to 125 °C
39 | COc1ccc2c(c1)N(C(C)=O)CCO2 | 76 to 77 °C
40 | O=C(N[C@H]1CC[C@H](CCN2CCN(c3nccc4c3CCO4)CC2)CC1)c1ccc(N2CCOCC2)nc1 | 222 °C
41 | COC(=O)c1c(C)c([N+](=O)[O-])cc2nc(OC)c(OC)nc12 | 174 to 176 °C
42 | CC(C)(C)OC(=O)ON=C(C#N)c1ccc(Cl)cc1 | 91 to 92 °C
43 | Cc1ccc2c(c1)C=Cc1sc(C)nc1C2c1cn(CCN2CCCC2)c(=O)[nH]c1=S (stereo not given) | 198 °C
44 | CCCCN1CCCC1=NC(=O)Nc1c(C)cccc1C | 93 to 95 °C
45 | COc1ccc(CSc2ncn(Cc3cc4c(cc3Cl)OCO4)c2C(=O)O)cc1 | 195 °C
46 | CS(=O)(=O)c1ccc(-c2oc(C(F)F)cc(=O)c2-c2ccc(Cl)cc2)cc1 | 168 to 170 °C
47 | O=C(O)Cc1onc(O)c1Cl | 155 °C
48 | NS(=O)(=O)c1ccc(-n2nc(C=NOCc3ccccc3)cc2-c2ccc(Cl)cc2)cc1 | 158 to 159 °C
49 | CCOC(=O)c1cn(N)c2cc(-n3cccc3)c(F)cc2c1=O | 276 to 279 °C
50 | Cn1c2ccc(Cl)cc2c(=O)n2nc(C#N)cc12 | 350 °C

Row | SMILES | melting point
51 | CNS(=O)(=O)Oc1ccccc1 | 43 to 45 °C
52 | O=C(c1cc(N2CCC3(CC2)OCCO3)ccn1)N(O)Cc1ccccc1 | 98 to 102 °C
53 | CCON=C(C)c1ccc2c(c1)ncn2-c1cccc(C2=CCCN(C)C2)c1 | 138 to 143 °C
54 | CCN(CC)CCOc1ccc(Nc2ncc3c(n2)N(C)C(=O)N(c2ccccc2Br)C3)cc1 | 144 °C
55 | CCCOc1ccc(Br)cc1-c1nc2c(C)cccc2c(=O)[nH]1 | 179 to 180 °C
56 | CN(C)CC1CNc2ccc(Cl)cc2C1 (stereo not given) | 94 to 96 °C
57 | O=c1oc(-c2cccc(Cl)c2)ns1 | 83 to 84.5 °C
58 | CCCCCCCCCCCCCCCCCC(=O)OC1CC(C)(C)N(OC2CCCCC2)C(C)(C)C1 | 44 to 47 °C
59 | COC(=O)c1ncc(OCc2ccccn2)nc1NCc1ccc(OC)c(Cl)c1 | 132 to 133 °C
60 | FC(F)(F)c1cccc(-c2ccnc3ncnn23)c1 | 158 to 160 °C
61 | O=[N+]([O-])c1oc2c(NS(=O)(=O)C(F)(F)F)cccc2c1-c1ccccc1 | 168 to 170 °C
62 | CCOC(=O)C1=C(C)NC(=S)N(C(=O)OCC)C1c1ccccc1C(F)(F)F (stereo not given) | 106 to 108 °C
63 | COC(=O)COc1cc2c(c(Cl)c1Cl)C(=O)C(CCOC(C)=O)C2 (stereo not given) | 111 to 113 °C
64 | CCCCCCCCCCCCCCCCCCCc1cccc(N)c1 | 50 to 51 °C
65 | N#Cc1ccc(CCCCCC(=O)O)cc1 | 61 to 62 °C
66 | COc1ccc(C(O)C(CO)[N+](=O)[O-])cc1OC (stereo not given) | 134 to 138 °C
67 | CC(=O)OCc1nc(-c2ccc3c(c2)OCO3)c2cc3c(cc2n1)OCO3 | 144 to 147 °C
68 | CC(=O)C(Cc1nsc2ccc(-n3c(=O)cc(C(F)(F)F)n(C)c3=O)cc12)C(=O)O (stereo not given) | 191 to 193 °C
69 | CNC(=S)N(O)C(C)c1cc(C(C)(C)C)c(O)c(C(C)(C)C)c1 (stereo not given) | 175 to 176 °C
70 | COc1ccc(C(=O)Nc2c(Cl)cncc2Cl)c2c(CC(=O)O)coc12 | 270 to 278 °C
71 | CCOC(=O)n1cc(C=O)c(-c2ccc([N+](=O)[O-])o2)n1 | 140 to 141 °C
72 | COc1cccc(CSc2nnc(-c3ccc4c(c3)CCO4)o2)c1 | 91 to 93 °C
73 | CCCCOCCOc1ccc(-c2ccc3c(c2)C=C(C(=O)Nc2ccc([C@H](O)c4ccccn4)cc2)CCN3C(=O)C(F)(F)F)cc1 | 100 to 102 °C
74 | COc1cc(-c2cc(O)c(SCc3ccccc3)c(=O)o2)cc(OC)c1OC | 156 to 157 °C
75 | CC(C)(Cc1c[nH]c2ccccc12)NCC(O)COc1ccccc1C#N (stereo not given) | 120 to 123 °C

Row | SMILES | melting point
76 | CC(C(=O)O)C(=O)c1ncc(Cl)cc1F (stereo not given) | 101 to 102 °C
77 | N#Cc1c(N2CCCCC2)cc(-c2cccc3ccccc23)c2c1C(=O)c1ccccc1-2 | 202 to 204 °C
78 | CCCc1ccc(CCCCCCCC(=O)O)cc1 | 42 to 43 °C
79 | CNC(=O)Nc1cc(CC(C)C)ccc1-c1ccccc1S(=O)(=O)Nc1onc(C)c1C | 172 to 174 °C
80 | Cc1cccc2c(=O)nc(-c3cccc(C(=O)O)n3)sc12 | 260 to 261 °C
81 | Cc1cc(C)nc(SCC(CS(=O)(=O)c2ccc(-c3ccc(Cl)cc3)cc2)C(=O)O)n1 (stereo not given) | 170 to 172 °C
82 | COC(=O)c1ccc(CC(C=O)c2cc(C(=O)OC)ccc2[N+](=O)[O-])c(OC)c1 (stereo not given) | 117 to 120 °C
83 | O=c1[nH]c2cc(Cl)ccc2n(C2CCCCC2)c1=O | 265 to 266 °C
84 | CN(CC1CC=CCC1)c1ncnc2c1ncn2C1OC(CO)C(O)C1O (stereo not given) | 154 to 156 °C
85 | COC(=O)CCC(=NOCc1ccc(OCCc2nc(-c3ccccc3)oc2C)cc1)c1ccccc1 | 73 to 74 °C
86 | CC#CC(O)(Cn1cncn1)c1ccc(Oc2ccc(Cl)cc2)cc1C(F)(F)F (stereo not given) | 137 °C
87 | COCc1cc(-c2ncc3[nH]c4cccc(OCc5ccccc5)c4c3c2COC)no1 | 133 to 135 °C
88 | CNc1cc(C)nc2c(S(=O)(=O)c3ccc(C)cc3)c(SC)nn12 | > 230 °C
89 | COC(=O)C(c1ccc(O)cc1)N1CC(NC(=O)Cc2ccccc2)C1=O (stereo not given) | 172 to 175 °C
90 | Cn1c(=O)n(C)c2cc(C(=O)CSCCC(=O)O)ccc21 | 174 to 176 °C
91 | COc1cccc(OC)c1C(=O)C=Cc1c(Cl)cccc1Cl | 127 to 128 °C
92 | COc1cccc(-c2nc(Nc3ccc(Cl)cc3)c3ccccc3n2)n1 | 157 to 160 °C
93 | CS(=O)(=O)c1ccc(-c2cc(C(F)(F)F)cnc2C(=O)c2ccccc2)cc1 | 141 to 142 °C
94 | CC1(CNC(=O)C(F)(F)F)CN(C(c2ccccc2)c2ccccc2)C1 | 127 to 128 °C
95 | COc1ccc(C2=NN(Cc3ccccc3)C(=O)[C@H]3CCCC[C@@H]23)cc1OC1CCCC1 (relative stereo) | 91 to 92 °C
96 | COc1ccc2c(Cc3c(Cl)cncc3Cl)nncc2c1C#Cc1ccccc1 | 217 to 219 °C
97 | CCn1cc(C(=O)O)c(=O)c2c1SC(=NOCC(=O)O)C2 | 249 to 250 °C
98 | CC1CC(=O)NN=C1c1ccc(OCCCN)cc1 (stereo not given) | 136 to 138 °C
99 | COC(=O)C1=C(C)NC(C)=C(C(=O)OCCCOc2ccc(CCCCO)cc2)C1c1cccc([N+](=O)[O-])c1 (stereo not given) | 72 °C
100 | COC(C#N)c1ccc2ccccc2c1 (stereo not given) | 47 to 48 °C
